Assay results from patent publication US20060147382A1, “Synergistic combination comprising roflumilast and an anticholinergic agent selected from ipratropium, oxitropium and tiotropium salts for the treatment of respiratory diseases” (Altana Pharma AG, priority 2003, published 2006).

System: methacholine-induced bronchoconstriction in guinea pigs
Assay: Inhibition of methacholine-induced bronchoconstriction in anaesthetized, mechanically ventilated guinea pigs
Assay type: in vivo, guinea pig
Conditions: for Effect on methacholine-induced bronchospasm (in words): versus placebo, ANOVA and Dunnett's test, ROFLUMILAST 4 mg/kg intratracheally, tiotropium-bromide 1 μg/kg i.v.
Protocol: Inhibition of Methacholine-Induced Bronchoconstriction in Guinea Pigs by ROFLUMILAST in combination with tiotropium-bromide
To assess the inhibitory effect of tiotropium-bromide, ROFLUMILAST, and the combination of both compounds on methacholine-induced bronchoconstriction in anaesthetized, mechanically ventilated guinea pigs.
Male Dunkin Hartley guinea pigs; body weight 350-450 g when performing the experiments.
75 min before methacholine-induced bronchospasm (at −75 min) animals were anaesthetized with urethane i.p. (1.2 g/kg). At −55 min for I.v. injections the right jugular vein and for ventilation the trachea was cannulated. At −45 min NaCl 0.9% or tiotropium-bromide was administered I.v. (1 μg/kg). At −30 min lactose (10 mg/kg) or ROFLUMILAST (4 mg/kg) mixed with lactose was administered intratracheally by a dry powder aerolizer. At −10 min pancuronium-bromide (1.5 mg/kg) was administered I.v. to abolish spontaneous breathing. Animals were mechanically ventilated with 60 breath/min and a tidal volume of 7 ml/kg. Dynamic lung compliance (COM) and airway conductance (CON) were calculated with the help of a computer system from airflow and ventilation pressure signals. At t=0 min methacholine was administered i.v. (60 μg/kg) to induce bronchoconstriction.
COM and CON were determined up to 120 s after methacholine-induced bronchospasm. AUCs for 0 to 120s were determined. Inhibition was calculated based on the AUC data. Data are shown as mean ±SEM. Results were taken to be significant if p<0.05 versus placebo (ANOVA and Dunnett's multiple comparison test)

[1] = male Dunkin Hartley guinea pigs, methacholine 60 μg/kg i.v., ROFLUMILAST 4 mg/kg intratracheally at -30 min, tiotropium-bromide 1 μg/kg i.v. at -45 min

Structure (SMILES)	Inhibition of methacholine-induced airway conductance (CON) decrease, based on AUC 0 to 120 s [1] [%]	Effect on methacholine-induced bronchospasm (in words)	Inhibition of methacholine-induced dynamic lung compliance (COM) decrease, based on AUC 0 to 120 s [1] [%]
O=C(Nc1c(Cl)cncc1Cl)c1ccc(OC(F)F)c(OCC2CC2)c1 [ROFLUMILAST, 3-cyclopropylmethoxy-4-difluoromethoxy-N-(3,5-dichloropyrid-4-yl)benzamide]	5.6	no significant effect	
C[N+]1(C)[C@@H]2C[C@@H](OC(=O)C(O)(c3cccs3)c3cccs3)C[C@H]1[C@@H]1O[C@@H]12 [tiotropium-bromide]	5.9	no significant effect	12
